The text below walks through data of article PMC4340503 (Nature, 2008).

Molecules are shown by their SMILES. Where a SMILES comes first, the peptide text is derived from it. [ ]: non-standard residue; d: D form. The star is where a group is joined. X1 = CCCCCCCCCCCCCCCC(=O)OC[C@H](COP(=O)(O)OCCNC(=O)CCCc1ccc(N2C(=O)CC(*)C2=O)cc1)OC(=O)CCCCCCCCCCCCCCC; pS = N[C@@H](COP(=O)(O)O)C(=O)O

Assay [1] has as its target AP2 core σ2V88D (UniProt P17427+P62743+P63010+P84092, V88D). In kind it is binding. To be noted: pH 8.7.
The target in assay [2] is AP2 core σ2L103S (UniProt P17427+P62743+P63010+P84092, L103S). In kind it is binding. As to conditions: pH 8.7.
AP2 core σ2L103S, sequence (P62743 whole entry L103S): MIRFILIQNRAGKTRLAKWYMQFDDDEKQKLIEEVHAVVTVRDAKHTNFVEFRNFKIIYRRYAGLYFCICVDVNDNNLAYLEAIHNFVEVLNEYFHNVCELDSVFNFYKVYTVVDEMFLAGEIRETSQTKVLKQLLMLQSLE
AP2 core σ2L103S, sequence (P84092 whole entry): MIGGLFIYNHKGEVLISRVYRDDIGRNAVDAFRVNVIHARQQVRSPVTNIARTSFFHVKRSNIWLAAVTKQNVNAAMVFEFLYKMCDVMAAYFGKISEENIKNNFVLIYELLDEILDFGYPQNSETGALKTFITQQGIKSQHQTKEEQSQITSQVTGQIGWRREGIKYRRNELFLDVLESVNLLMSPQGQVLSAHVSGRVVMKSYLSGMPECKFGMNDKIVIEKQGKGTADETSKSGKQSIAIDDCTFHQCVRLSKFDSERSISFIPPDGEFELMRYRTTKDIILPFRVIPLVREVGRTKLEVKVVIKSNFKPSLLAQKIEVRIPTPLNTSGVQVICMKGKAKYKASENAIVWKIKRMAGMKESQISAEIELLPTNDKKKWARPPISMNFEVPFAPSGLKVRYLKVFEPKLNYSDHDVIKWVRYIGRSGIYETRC
AP2 core σ2L103S, sequence (P17427 1-621): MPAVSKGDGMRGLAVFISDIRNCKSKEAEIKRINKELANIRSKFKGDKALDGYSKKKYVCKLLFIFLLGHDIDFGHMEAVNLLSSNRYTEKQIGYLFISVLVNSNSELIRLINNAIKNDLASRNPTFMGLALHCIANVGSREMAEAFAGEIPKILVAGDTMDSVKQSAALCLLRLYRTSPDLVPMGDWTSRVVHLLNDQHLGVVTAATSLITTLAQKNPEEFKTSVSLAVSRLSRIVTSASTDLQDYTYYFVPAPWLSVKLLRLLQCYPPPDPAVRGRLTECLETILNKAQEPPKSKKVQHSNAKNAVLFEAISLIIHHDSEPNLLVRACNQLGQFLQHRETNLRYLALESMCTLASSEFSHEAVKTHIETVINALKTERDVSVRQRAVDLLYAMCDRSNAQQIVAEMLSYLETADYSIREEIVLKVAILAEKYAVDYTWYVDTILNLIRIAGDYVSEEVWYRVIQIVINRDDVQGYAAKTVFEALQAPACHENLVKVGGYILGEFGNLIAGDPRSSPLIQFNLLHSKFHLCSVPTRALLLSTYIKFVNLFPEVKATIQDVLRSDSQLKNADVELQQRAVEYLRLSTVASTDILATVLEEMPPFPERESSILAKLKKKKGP
AP2 core σ2L103S, sequence (P63010 1-591): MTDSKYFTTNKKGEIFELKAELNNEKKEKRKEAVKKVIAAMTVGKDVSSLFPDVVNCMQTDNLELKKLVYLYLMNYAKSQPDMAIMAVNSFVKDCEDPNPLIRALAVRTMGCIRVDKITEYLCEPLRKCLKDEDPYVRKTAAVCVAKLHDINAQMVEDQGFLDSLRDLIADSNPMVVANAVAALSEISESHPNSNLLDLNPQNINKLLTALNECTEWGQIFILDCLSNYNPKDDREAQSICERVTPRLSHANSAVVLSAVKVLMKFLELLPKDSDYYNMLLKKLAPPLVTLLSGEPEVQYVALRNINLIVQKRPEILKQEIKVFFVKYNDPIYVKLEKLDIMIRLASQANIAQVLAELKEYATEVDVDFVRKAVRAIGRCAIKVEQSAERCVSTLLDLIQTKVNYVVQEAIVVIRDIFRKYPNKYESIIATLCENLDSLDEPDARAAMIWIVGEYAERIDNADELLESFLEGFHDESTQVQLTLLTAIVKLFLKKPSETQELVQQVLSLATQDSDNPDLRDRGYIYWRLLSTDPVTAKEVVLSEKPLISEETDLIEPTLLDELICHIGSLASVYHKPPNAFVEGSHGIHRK

AP2 core σ2V88D, sequence (P62743 whole entry V88D): as the sequence (P62743 whole entry L103S) above, with V88D, S103L counted along it
AP2 core σ2V88D, sequence (P63010 1-591, stated change not applied): as the sequence (P63010 1-591) above
AP2 core σ2V88D, sequence (P84092 whole entry, stated change not applied): as the sequence (P84092 whole entry) above
AP2 core σ2V88D, sequence (P17427 1-621): as the sequence (P17427 1-621) above

For the compound `CCCCCCCCCCCCCCCC(=O)OC[C@H](COP(=O)(O)OCCNC(=O)CCCc1ccc(N2C(=O)CC(SC[C@H](N)C(=O)N[C@@H](Cc3c[nH]cn3)C(=O)N[C@@H](CCCNC(=N)N)C(=O)N[C@@H](CCCNC(=N)N)C(=O)N[C@@H](CCCNC(=N)N)C(=O)N[C@@H](CCC(N)=O)C(=O)N[C@@H](C)C(=O)N[C@@H](CCC(=O)O)C(=O)N[C@@H](CCCNC(=N)N)C(=O)N[C@@H](CCSC)C(=O)N[C@@H](COP(=O)(O)O)C(=O)N[C@@H](CCC(N)=O)C(=O)N[C@H](C(=O)N[C@@H](CCCCN)C(=O)N[C@@H](CCCNC(=N)N)C(=O)N[C@@H](CC(C)C)C(=O)N[C@@H](CC(C)C)C(=O)N[C@@H](CO)C(=O)N[C@@H](CCC(=O)O)C(=O)N[C@@H](CCCCN)C(=O)O)[C@@H](C)CC)C2=O)cc1)OC(=O)CCCCCCCCCCCCCCC` (some centres unmarked) [phospho-CD4 Q-peptide] (H-C(X1)HRRRQAERM[pS]QIKRLLSEK-OH; N-terminus and C-terminus assumed), the KD result in assay [1] and in assay [2] was “below detectable levels” each time.
